Read-outs that look alike come from different tables or passages of the source. Square brackets hold non-standard residues; d marks the D form. Ends that are not written are not given here. Peptide text beside a SMILES is read from it. Oic = O=C(O)[C@@H]1C[C@@H]2CCCC[C@@H]2N1; dOic = O=C(O)[C@H]1C[C@H]2CCCC[C@H]2N1; Tic = O=C(O)[C@@H]1Cc2ccccc2CN1; dTic = O=C(O)[C@H]1Cc2ccccc2CN1
Legend:
human 20S proteasome [1] = molecular target: T1, human 20S proteasome; experiment: ChT-L peptidase activity of SDS-activated human 20S proteasome (SucLLVY-MCA); assay type: biochemical
T1 construct: isolated from human erythrocytes (Enzo Life Sciences); purchased Enzo Life Sciences; host or cells: human erythrocytes
Description: Influence of the designed peptides on catalytic properties of the 20S proteasome was tested using the proteasome at a final concentration of 1.5 nM, isolated from human erythrocytes (Enzo Life Sciences) and activated with 0.01% sodium dodecyl sulfate. Succinyl-Leu-Leu-Val-Tyr-4-methylcoumarin-7-amide (SucLLVY-MCA) was employed as a model fluorogenic substrate to determine the activity of ChT-L peptidase. All assays were performed in the 96-well plate format using a reaction volume of 100 uL. Tests were carried out in 50 mM Tris/HCl, pH 8.0 containing 0.5 mM ethylenediamine tetraacetic acid. Stock solutions of the substrates and the tested peptides were prepared by dissolution of the lyophilized compounds in dimethyl sulfoxide (DMSO). The content of DMSO never exceeded 3% of the final reaction volume. Compounds were tested in the concentration range of 0.05–10 μM. The substrate was added at 100 μM final concentration (1% of the volume). The release of an aminomethyl coumarin (AMC) group was followed by measuring fluorescence emission at 460 nm in 2 min. intervals for up to 60 min. at 37°C (Fluoroskan Ascent). The peptidolytic activity was calculated as nanomoles of the released AMC product per mg of CP per second. The half maximal inhibitory concentration expressed in μM concentration was calculated with SigmaPlot 12.3 where exponential equation estimates based on fitting of two or three logistic parameters were employed.

human 20S proteasome [2] = molecular target: T1, human 20S proteasome; experiment: Microscale thermophoresis with fluorescently labeled human 20S proteasome; assay type: binding; conditions: for EC50: MST Hill fit, concentrations listed in nM, read-out: EC50, fitted value (Hill method); for Kd: MST
From the text: Microscale thermophoresis detects changes in the mobility of protein molecules in temperature gradients generated by IR laser radiation. The thermophoretic effect is very sensitive to induced by a ligand binding alterations in the charge, size and/or the hydration shell of a studied protein [39]. Quantification of these changes is based on either intrinsic fluorophores such as tryptophan or covalently bound dyes. Titration of the selected peptides/peptidomimetics to a constant concentration of the fluorescently labeled human 20S proteasome allowed us to determine ligand dissociation constants (Kd), and systematically compare their binding affinity.
The human 20S proteasome was labeled using monolith NT^TM Protein Labeling Kit RED-NHS (NanoTemper Technologies), according to the protocol provided by the supplier. During the measurements concentration of the labeled protein was kept constant at 3 nM. […] The binding reactions were carried out in 50 mM Tris/HCl buffer containing 0.5 mM EDTA, pH 8.0 with an addition of sodium dodecyl sulfate at the final concentration of 0.005%. Measurements were performed in standard treated capillaries on a Monolith NT.115 system (NanoTemper Technologies). Capillaries were illuminated at 25°C with 80% LED power for 5 s. […] Fluorescence intensities were measured at 6–8 s and 34–36 s, and fluorescence intensity ratios of hot/cold were used as the assay readout. Kd values were determined using the internal evaluation software.

human 20S proteasome [3] = test system: T1, human 20S proteasome; experiment: Peptide degradation test with 20S proteasome (RP-HPLC); assay type: in vitro ADME
Description: Susceptibility of the designed modulators to degradation by the 20S proteasome was examined by reversed-phase high-performance liquid chromatography (S10 Fig). The compounds were dissolved in water or DMSO to 10 mM concentration and then diluted with 25 mM Tris buffer containing 0.25 mM EDTA (pH 8.0) to the final concentration of 1 mM. 2.5 μg of human 20S proteasome (Enzo Life Sciences) was added to the mixture, which then, after adjustment of its final volume to 100 μl, was incubated at 37°C for 3 h. The reaction was stopped by adding 5 μl of 10% aqueous trifluoroacetic acid. Next, 40 μl of the mixture, along with the control not containing the 20S, were injected onto C8 Kromasil column (4,6 x 250 mm, 100 Å, 5 μm). […]
incubation with the proteasome under standard conditions used in our tests. For comparison we also included the degradation profile of Tat1_A4-5,8-9, which was not able to inhibit the proteasome […]
(1 picture or pasted object on this page, not shown here)

20S proteasome = conditions: cited from earlier work
From the text: Intriguingly, we first identified the importance of structural dynamics of this peptide, when we compared the FTIR spectra collected in liquid and films. […] The best studied and shortest 11-residue PR11 may contain a structural turn and is hypothesized to bind at the outer edge of the proteasomal α ring. Another example is octa-arginine, inhibiting the proteasome peptidase activity in vitro with high- ...

[4] = ChT-L activity, average of repetitions, read-out: Calculated IC50, Average
[5] = ChT-L peptidase, 1.5 nM 20S from human erythrocytes activated with 0.01% SDS, 100 μM SucLLVY-MCA, 50 mM Tris/HCl pH 8.0, 0.5 mM EDTA, 37°C, mean (±SD), read-out: IC50
[6] = average of three repetitions, read-out: Kd, Average
[7] = ChT-L activity, Repetition 1, read-out: Calculated IC50

| Molecule | IC50 (human 20S proteasome [1]; [4]) [nM] | IC50 (human 20S proteasome [1]; [5]) [nM] | further results |
| --- | --- | --- | --- |
| GRAAAAQRRRPS [Tat1_A3-6] | 4240 | 4240 |  |
| GRAAARQRRRPS [Tat1_A3-5] | 1570 | 1570 |  |
| N=C(N)NCCC[C@H](NC(=O)CN)C(=O)N[C@@H](CCCCN)C(=O)N[C@@H](CCCCN)C(=O)N[C@@H](CCCNC(=N)N)C(=O)N[C@@H](CCCNC(=N)N)C(=O)N[C@@H](CCC(N)=O)C(=O)N1Cc2ccccc2C[C@@H]1C(=O)N1[C@H](C(=O)N[C@@H](CCCNC(=N)N)C(=O)N2CCC[C@H]2C(=O)N[C@@H](CO)C(=O)O)C[C@@H]2CCCC[C@@H]21 [Tat1_8-9TO] | 170 | 170 | EC50 (human 20S proteasome [2]; Repetition 1): 8880 ± 0.0559 nM; EC50 (human 20S proteasome [2]; Repetition 2): 10800 ± 0.0559 nM; EC50 (human 20S proteasome [2]; Repetition 3): 11500 ± 0.0559 nM; Kd (human 20S proteasome [2]; [6]): 10400 nM |
| GRKKRRAAARPS [Tat1_A7-9] | 281 | 280 |  |
| GRKKRRQAAAPS [Tat1_A8-10] | 2520 | 2520 | IC50 (human 20S proteasome [1]; [7]): 1990 nM; EC50 (human 20S proteasome [2]; Repetition 1): 13800 ± 0.227 nM; EC50 (human 20S proteasome [2]; Repetition 2): 12800 ± 0.251 nM; EC50 (human 20S proteasome [2]; Repetition 3): 13800 ± 0.218 nM; Kd (human 20S proteasome [2]; [6]): 13500 nM |
| N=C(N)NCCC[C@H](NC(=O)CN)C(=O)N[C@@H](CCCCN)C(=O)N1Cc2ccccc2C[C@@H]1C(=O)N1[C@H](C(=O)N[C@@H](CCCNC(=N)N)C(=O)N[C@@H](CCC(N)=O)C(=O)N2Cc3ccccc3C[C@H]2C(=O)N2[C@@H](C(=O)N[C@@H](CCCNC(=N)N)C(=O)N3CCC[C@H]3C(=O)N[C@@H](CO)C(=O)O)C[C@H]3CCCC[C@H]32)C[C@@H]2CCCC[C@@H]21 [Tat1_4-5TO,8-9TOD] (H-GRK[dTic][Oic]RQ[Tic][dOic]RPS-OH) | 245 | 240 | Kd (human 20S proteasome [2]; read-out: Dissociation constants Kd calculated on the basis of the thermophoresis curves, 3 nM labeled 20S, 50 mM Tris/HCl, 0.5 mM EDTA pH 8.0, 0.005% SDS, 25°C, mean (±SD)): 8380 nM |
| GRKKARAAARPS [Tat1_A5,7–9] | 1530 | 1530 |  |
| GAAARRQRRRPS [Tat1_A2-4] |  | 450 | Increase of IC50 relative to Tat1 (human 20S proteasome [1]; ChT-L activity of SDS activated 20S proteasome): about two times higher |
| GRKAARQAARPS [Tat1_A4-5,8–9] |  | 4660 | IC50 (human 20S proteasome [1]; [7]): 4890 nM; IC50 (human 20S proteasome [1]; ChT-L activity, Repetition 2, read-out: Calculated IC50): 3470 nM; IC50 (human 20S proteasome [1]; ChT-L activity, Repetition 3, read-out: Calculated IC50): 4430 nM; Degradation by the 20S proteasome (human 20S proteasome [3]; pH 8): partially degraded by the proteasome |
| GRKKRRAAAAPS [Tat1_A7-10] | 2790 | 2790 |  |
| N=C(N)NCCC[C@H](NC(=O)CN)C(=O)N[C@@H](CCCCN)C(=O)N[C@@H](CCCCN)C(=O)N[C@@H](CCCNC(=N)N)C(=O)N[C@@H](CCCNC(=N)N)C(=O)N[C@@H](CCC(N)=O)C(=O)N1Cc2ccccc2C[C@H]1C(=O)N1[C@@H](C(=O)N[C@@H](CCCNC(=N)N)C(=O)N2CCC[C@H]2C(=O)N[C@@H](CO)C(=O)O)C[C@H]2CCCC[C@H]21 [Tat1_8-9TOD] | 122 | 120 | IC50 lower than for counterpart with d-Tic,l-Oic unit (Tat1_8-9TO) (human 20S proteasome [1]; ChT-L activity): about 30%; EC50 (human 20S proteasome [2]; Repetition 1): 8320 ± 0.0423 nM; EC50 (human 20S proteasome [2]; Repetition 2): 7550 ± 0.0388 nM; EC50 (human 20S proteasome [2]; Repetition 3): 8560 ± 0.0538 nM; Kd (human 20S proteasome [2]; [6]): 8140 nM |
| GRAARRQRRRPS [Tat1_A3-4] | 245 | 240 |  |
| GRKAAAQRRRPS [Tat1_A4-6] | 1720 | 1720 | EC50 (human 20S proteasome [2]; Repetition 1): 12800 ± 0.155 nM; EC50 (human 20S proteasome [2]; Repetition 2): 10600 ± 0.0436 nM; EC50 (human 20S proteasome [2]; Repetition 3): 12000 ± 0.084 nM; Kd (human 20S proteasome [2]; Repetition2, read-out: Kd): 10600 nM; Kd (human 20S proteasome [2]; [6]): 12100 nM |
| GRKKRAAARRPS [Tat1_A6-8] | 342 | 340 |  |
| N=C(N)NCCC[C@H](NC(=O)CN)C(=O)N[C@@H](CCCCN)C(=O)N[C@@H](CCCCN)C(=O)N[C@@H](CCCNC(=N)N)C(=O)N[C@@H](CCCNC(=N)N)C(=O)N[C@@H](CCC(N)=O)C(=O)N[C@@H](CCCNC(=N)N)C(=O)N[C@@H](CCCNC(=N)N)C(=O)N[C@@H](CCCNC(=N)N)C(=O)N1CCC[C@H]1C(=O)N[C@@H](CO)C(=O)O [Tat1] |  |  | Degradation by the 20S proteasome (human 20S proteasome [3]; 1 mM peptide, 2.5 μg human 20S proteasome in 100 μl, 25 mM Tris, 0.25 mM EDTA pH 8.0, 37°C, 3 h, RP-HPLC C8, UV 223 nm, against control without 20S): No significant degradation |
| GRKAARQRRRPS [Tat1_A4-5] | 264 | 260 |  |
| octa-arginine |  |  | IC50, proteasome peptidase activity in vitro (20S proteasome): high-nanomolar |
| GRKKAAARRRPS [Tat1_A5-7] | 315 | 310 |  |
| N=C(N)NCCC[C@H](NC(=O)CN)C(=O)N[C@@H](CCCCN)C(=O)N1Cc2ccccc2C[C@@H]1C(=O)N1[C@H](C(=O)N[C@@H](CCCNC(=N)N)C(=O)N[C@@H](CCC(N)=O)C(=O)N[C@@H](CCCNC(=N)N)C(=O)N[C@@H](CCCNC(=N)N)C(=O)N[C@@H](CCCNC(=N)N)C(=O)N2CCC[C@H]2C(=O)N[C@@H](CO)C(=O)O)C[C@@H]2CCCC[C@@H]21 [Tat1_4-5TO] (HELM PEPTIDE1{G.R.K.[O=C([C@H]1Cc2ccccc2CN1[*:1])[*:2]].[O=C([C@@H]1C[C@@H]2CCCC[C@@H]2N1[*:1])[*:2]].R.Q.R.R.R.P.S}$$$$V2.0) | 239 | 240 | EC50 (human 20S proteasome [2]; Repetition 1): 8730 ± 0.0212 nM; EC50 (human 20S proteasome [2]; Repetition 2): 9260 ± 0.0182 nM; EC50 (human 20S proteasome [2]; Repetition 3): 8730 ± 0.0265 nM; Kd (human 20S proteasome [2]; [6]): 8910 nM |
| GRKKAAQRRRPS [Tat1_A5-6] | 321 | 320 |  |

— PMC4648528, “Interplay between Structure and Charge as a Key to Allosteric Modulation of Human 20S Proteasome by the Basic Fragment of HIV-1 Tat Protein” (PLoS ONE, 2015)
